Laboratory results as given in patent US4960678A, “Photochromic compounds” (Tokuyama Soda Kabushiki Kaisha, priority 1987, dated 1990).

Legend:
Format in all cases: physicochemical
[1] = Xenon long-life fadeometer test of photochromic poly(methyl methacrylate) cast film (initial coloration density, T1/2, λmax), Example 9; conditions: poly(methyl methacrylate) cast film 0.1 mm; for λmax: maximum absorption wavelength; for T1/2 (fatigue life): time for color density to decrease to half of initial value; for T1/2 (fatigue life) / Initial color density: xenon fadeometer; for Initial color density: initial coloration density (absorbance);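 as to Initial color density: 0.5 part by weight compound dispersed with PMMA in 100 parts benzene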
Source text: The thickness of the cast film was adjusted to 0.1 mm.
(§1) T1/2 is defined as the time required for the color density to decrease to half of its initial value when the film is exposed to the fadeometer.

[2] = Fading speed of poly(methyl methacrylate) cast film after mercury lamp irradiation, Example 9; conditions: mercury lamp 60 seconds at 20°±1° C., time to half absorbance after irradiation stopped
Protocol: The fading speeds of the cast films prepared as above were measured by the following procedure.
The cast film was exposed to a mercury lamp (SHL-100 made by Toshiba Co., Ltd.) at 20°±1° C. for 60 seconds from a distance of 10 cm. Then, the irradiation was stopped, and the fading speed was determined from changes in the absorbance of the cast film measured by a spectrophotometer (220A made by Hitachi Limited). The fading speed is expressed by the time which is required to the absorbance of the cast film to a value half of (the absorbance of the cast film at a maximum absorption wavelength immediately after 60 second irradiation)--(the absorbance of the non-irradiated cast film at the maximum wavelength) after light irradiation for 60 seconds.

[3] = Durability test of poly(allyl diglycol carbonate) lens impregnated with compound in silicone oil, Example 10; conditions: for Initial color density / λmax: impregnated from silicone oil; for T1/2: impregnated from silicone oil at 200° C. for 1 hour, xenon fadeometer
Protocol: as §1
The solution was impregnated in the surface of a lens composed of poly(allyl diglycol carbonate) at 200° C. for 1 hour. The concentration of the solution was adjusted to 1.0×10^-4 mole/g.

[4] = Fatigue life of films of fulgimide or fulgide compounds with Cyasorb UV1084, Example 14; conditions: with Cyasorb UV1084 (0.2 part) as ultraviolet stabilizer in poly(methyl methacrylate) film; xenon fadeometer
[5] = Fatigue life of film of fulgimide compound obtained in Example 1 with ultraviolet stabilizer, Example 11; conditions: fulgimide compound obtained in Example 1 (0.2 part) with 0.2 part ultraviolet stabilizer in poly(methyl methacrylate) film; xenon fadeometer
Source text: as §1
(§2) One hundred parts of benzene, 10 parts of poly(methyl methacrylate), 0.2 part of the fulgimide compound obtained in Example 1 and 0.2 part of each of the compounds shown in Table 5 as an ultraviolet stabilizer were mixed to form a solution. The solution was cast on a slide glass (11.2×3.7cm) to form a cast film having a thickness of 0.1 mm.
(§3) The fatigue life of photochromic film was measured as in Example 9 by a xenon long-life fadeometer (FAL-25AX-HC made by Suga Testing Instrument Co., Ltd.).

[6] = Fatigue life of film of fulgimide compound obtained in Example 2 with ultraviolet stabilizer, Example 12; conditions: fulgimide compound obtained in Example 2 (0.2 part) with 0.2 part ultraviolet stabilizer in poly(methyl methacrylate) film; xenon fadeometer
Protocol: as §2, §3
Example 11 was repeated except that the fulgimide compound obtained in Example 2 was used instead of fulgimide compound used in Example 11.

[7] = Fatigue life of film of fulgimide compound obtained in Example 1 with varied amounts of ultraviolet stabilizer, Example 13; conditions: fulgimide compound of Example 1
Protocol: […] The solution was cast on a slide glass (11.2×3.7cm) to form a cast film having a thickness of 0.1 mm.
as §3

[8] = stabilizer amount added 0.002 (1 part per 100 parts by weight of fulgimide)
[9] = stabilizer amount added 0.1 (50 parts per 100 parts by weight of fulgimide)
[10] = stabilizer amount added 0.8 (400 parts per 100 parts by weight of fulgimide)
[11] = stabilizer amount added 20 (10000 parts per 100 parts by weight of fulgimide)

| Structure (SMILES) | λmax [1] [nm] | T1/2 (fatigue life) [1] [h] | Initial color density [1] | also measured |
| --- | --- | --- | --- | --- |
| COC(=O)CN1C(=O)C2=C(C)c3ccsc3C3(C4CC5CC(C4)CC3C5)C2C1=O (stereo not shown) [(1)] | 535 | 38 | 0.62 | Fading speed [2]: 39 s; Initial color density [3]: 0.5; λmax [3]: 540 nm; T1/2 [3]: 40 h |
| COC(=O)C(C)N1C(=O)C2=C(c3ccccc3)c3ccoc3C3(C4CC5CC3CC(Cl)(C5)C4)C2C1=O (stereo not shown) [(12)] | 560 | 31 | 0.79 | T1/2 [4]: 160 h |
| COC12CC3CC(C1)C1(c4oc5ccccc5c4C(C)=C4C(=O)N(CC(=O)OC(C)(C)CCC#N)C(=O)C41)C(C3)C2 (stereo not shown) [(14)] | 490 | 42 | 0.82 | Initial color density [3]: 0.63; λmax [3]: 500 nm; T1/2 [3]: 42 h |
| CCCCC12CC3CC(C1)C1(c4c(n(C)c5ccccc45)C(C)=C4C(=O)N(CC(=O)OCCC#N)C(=O)C41)C(Cl)(C3)C2 (stereo not shown) [(29)] | 576 | 44 | 0.71 | Initial color density [3]: 0.56; λmax [3]: 583 nm; T1/2 [3]: 45 h |
| CC(=O)CN1C(=O)C2=C(c3ccccc3)c3cc(-c4ccccc4)sc3C3(C4CC5CC(C4)CC3C5)C2C1=O (stereo not shown) [(10)] | 601 | 40 | 0.58 | Initial color density [3]: 0.47; λmax [3]: 610 nm; T1/2 [3]: 43 h |
| CC1=C2C(=O)N(CCc3ccc4ccccc4c3)C(=O)C2C2(CC3CCC2C3)c2sc(Br)cc21 (stereo not shown) [(3)] | 535 | 13 | 0.42 | Fading speed [2]: 71 s; T1/2 [4]: 77 h |
| CCCCC(Cc1cc(C(C)(C)C)c(O)c(C(C)(C)C)c1)(C(=O)OC1CC(C)(C)N(C)C(C)(C)C1)C(=O)OC1CC(C)(C)N(C)C(C)(C)C1 [Tinuvin 144] | – | – | – | T1/2 [5]: 152 h; T1/2 [6]: 182 h |
| CN1C(C)(C)CC(OC(=O)CCCCCCCCC(=O)OC2CC(C)(C)N(C)C(C)(C)C2)CC1(C)C [Tinuvin 765] | – | – | – | T1/2 [5]: 159 h; T1/2 [6]: 191 h; T1/2 [7, 8]: 106 h; T1/2 [7, 9]: 152 h; T1/2 [7, 10]: 166 h; T1/2 [7, 11]: 182 h |
| CCOP(=O)([O-])Cc1cc(C(C)(C)C)c(O)c(C(C)(C)C)c1.CCOP(=O)([O-])Cc1cc(C(C)(C)C)c(O)c(C(C)(C)C)c1.[Ni+2] [Irgastab 2002] | – | – | – | T1/2 [5]: 147 h; T1/2 [6]: 176 h |
| CC1=C2C(=O)N(CC#N)C(=O)C2C2(c3sccc31)C1CC3CC(C1)CC2C3 (stereo not shown) [(2)] | 553 | 46 | 0.83 | Fading speed [2]: 26 s; Initial color density [3]: 0.64; λmax [3]: 562 nm; T1/2 [3]: 50 h; T1/2 [4]: 182 h |
| COc1ccc2c3c(sc2c1)C1(C2CC4CC(C2)CC1C4)C1C(=O)N(CCl)C(=O)C1=C3C (stereo not shown) [(9)] | 542 | 30 | 0.59 | – |
| CCCCN(CCCC)C(=S)[S-].CCCCN(CCCC)C(=S)[S-].[Ni+2] [Rylex NBC] | – | – | – | T1/2 [5]: 158 h; T1/2 [6]: 190 h |
| CC1=C2C(=O)OC(=O)C2C2(CC3CCC2C3)c2sc(Br)cc21 (stereo not shown) [(7)] | 520 | 15 | 0.38 | Fading speed [2]: 21 s |
| CCC(C(=O)OCCc1ccc2ccccc2c1)N1C(=O)C2=C(C)c3ccsc3C3(C4CC5CC(C4)CC3C5)C2C1=O (stereo not shown) [(5)] | 520 | 24 | 0.51 | Fading speed [2]: 58 s; Initial color density [3]: 0.4; λmax [3]: 520 nm; T1/2 [3]: 31 h |
| CC1=C2C(=O)N(C[N+](=O)[O-])C(=O)C2C2(c3sc(C)cc31)C1CC3CC(C1)CC2C3 (stereo not shown) [(8)] | 556 | 30 | 0.72 | Initial color density [3]: 0.56; λmax [3]: 562 nm; T1/2 [3]: 32 h |
| CC1=C2C(=O)N(CCCCC(=O)OCCc3cccc4ccccc34)C(=O)C2C2(c3sccc31)C1CC3CC(C1)CC2C3 (stereo not shown) [(6)] | 538 | 16 | 0.49 | Fading speed [2]: 76 s; T1/2 [4]: 65 h |
| CNC(=O)CN1C(=O)C2=C(C)c3cc([N+](=O)[O-])sc3C3(C4CC5CC(C4)CC3C5)C2C1=O (stereo not shown) [(11)] | 525 | 39 | 0.61 | – |
| CC(C)(C)CC(C)(C)c1ccc([O-])c(Sc2cc(C(C)(C)CC(C)(C)C)ccc2[O-])c1.CCCCN.[Ni+2] [Cyasorb UV1084] | – | – | – | T1/2 [5]: 152 h; T1/2 [6]: 182 h; T1/2 [7, 8]: 110 h; T1/2 [7, 9]: 140 h; T1/2 [7, 10]: 160 h; T1/2 [7, 11]: 180 h |

Further lines, with some results ahead:

| λmax [1] [nm] | T1/2 (fatigue life) [1] [h] | Initial color density [1] | Structure (SMILES) | also measured |
| --- | --- | --- | --- | --- |
| 513 | 11 | – | CC1=C2C(=O)N(c3ccc(C)cc3)C(=O)C2C2(CC3CCC2C3)c2sc3ccccc3c21 (stereo not shown) [(98)] | – |
| 530 | 3 | 0.7 | CCN1C(=O)C2=C(C)c3ccsc3C3(C4CC5CC(C4)CC3C5)C2C1=O (stereo not shown) [(X), reference compound] | – |
| 550 | 48 | 0.49 | CCCCC12CC3CC(C1)C1(c4c(OC)cc(OC)cc4C(c4ccccc4)=C4C(=O)N(C(C)(C)C#N)C(=O)C41)C(C3)C2 (stereo not shown) [(17)] | T1/2 [4]: 188 h |
| 506 | 8 | 0.31 | CC1=C2C(=O)N(c3ccccc3)C(=O)C2C2(CC3CCC2C3)c2sc(Br)cc21 (stereo not shown) [(97)] | – |
| 540 | 11 | 0.53 | CC1=C2C(=O)OC(=O)C2C2(CC3CCC2(C)C3(C)C)c2sc(C)cc21 (stereo not shown) [(95)] | – |
| 576 | 36 | 0.52 | CCCCC1=C2C(=O)N(CC(C)(C)CCOC(=O)CBr)C(=O)C2C2(CC3CCC2C3(C)C)c2sc3c(c21)CCCC3 (stereo not shown) [(21)] | – |
| 519 | 41 | 0.52 | CCC1=C2C(=O)N(CC(=O)CCC(=O)CCl)C(=O)C2C2(c3c1sc1ccccc31)C1(F)C(F)(F)C3(F)C(F)(F)C(F)(C1(F)F)C(F)(F)C2(F)C3(F)F (stereo not shown) [(18)] | – |
| 546 | 12 | 0.49 | CCn1c2c(c3ccccc31)C(C)=C1C(=O)OC(=O)C1C21C2CCC(C2)C1(C)C (stereo not shown) [(94)] | – |
| 510 | 8 | 0.24 | CCN1C(=O)C2=C(C)c3cc(OC)c(OC)c(OC)c3C3(CC4CCC3C4)C2C1=O (stereo not shown) [(99)] | – |
| 535 | 48 | 0.9 | CC1=C2C(=O)N(CC#N)C(=O)C2C2(c3occc31)C1CC3CC(C1)CC2C3 (stereo not shown) [(28)] | Initial color density [3]: 0.72; λmax [3]: 540 nm; T1/2 [3]: 49 h |
| 520 | 43 | 0.47 | CC1=C2C(=O)N(CC(=O)OCC(C)C)C(=O)C2C2(CC3CCC2C3)c2sc(Br)cc21 (stereo not shown) [(19)] | – |
| 492 | 31 | 0.84 | COCCOCN1C(=O)C2=C(C)c3c(oc4ccccc34)C3(C4CC5CC(F)(C4)CC3(F)C5)C2C1=O (stereo not shown) [(16)] | – |
